# Experimental data published in PMC8305389, “Tuning Photodynamic Properties of BODIPY Dyes, Porphyrins’ Little Sisters” (Molecules, 2021).
# Marks after values point to notes of the source that are not given here.
# Tests used:
# [1] = system: human cervical carcinoma (HeLa) cells; experiment: Photodynamic activity (phototoxicity) after light activation, Neutral Red uptake; type: cell-based; settings: for EC50: Homo sapiens, light or radiation study, HeLa, 12 h incubation, λ > 455 nm, 15.3 mW cm−2, 15 min, 13.7 J cm−2; for PDT activity improved over S3AlOHPc (fold): comparison with literature value of S3AlOHPc (ref 37); for EC50 higher than temoporfin (fold): comparison with literature value of temoporfin (ref 37)
# Method: (§1) The human cervical carcinoma (HeLa) and human melanoma (SK-MEL-28) cell lines were purchased from the American Type Cell Culture Collection (ATCC; Manassas, VA, USA). Both cell lines were cultured in Dulbecco’s modified Eagle’s medium (DMEM) without phenol red (Lonza, Verviers, Belgium) and supplemented with 10% heat-inactivated fetal bovine serum (Sigma-Aldrich (Merck, Darmstadt, Germany), 1% penicillin/streptomycin solution (Lonza), 10 mM HEPES buffer (Lonza), and 4 mM ultraglutamine I (alanyl-L-glutamine; Lonza). The cell lines were cultured in 75 cm^2 tissue culture flasks (TPP, Trasadingen, Switzerland) and maintained in a CO2 incubator at 37 °C in a humidified atmosphere of 5% CO2 and subcultured every 3−4 days. For the cytotoxicity experiments (phototoxicity and dark toxicity), cells were seeded into 96-well plates (TPP) at a density of 7.5 × 10^3 (HeLa and SK-MEL-28) cells per well for 24 h.
# (§2) Stock solutions of the investigated compounds were prepared in DMSO at a concentration of 0.5 mM (4b) or 1 mM (all other compounds) and were sterilized by filtration through 0.22 μm syringe MCE filters. The stock solutions were diluted by the above-mentioned cell culture medium to the required concentrations. The maximum DMSO concentration in the medium in the experiments was 1% (2% in case of cpd. 4b). Cytoxicity of DMSO at corresponding concentrations (without studied compounds) was assessed in all cytotoxicity experiments as well—no toxicity against SK-MEL-28 or HeLa cells was observed.
# (§3) For the photodynamic activity assessment experiments (phototoxicity), both HeLa and SK-MEL-28 cells were incubated overnight (12 h) with the studied compounds. The cells were then carefully and swiftly washed twice with a prewarmed sterile phosphate-buffered saline, fresh cell culture medium was added, and cells were subsequently irradiated for 15 min using a 450 W ozone-free Xe lamp (Newport; intensity reduced to 400 W). The lamp was equipped with a long-pass filter (Newport 20CGA-455) and an 8-cm water filter to cut off undesirable wavelengths and heat radiation, respectively (λ > 455 nm, 15.3 mW cm^−2, 15 min, 13.7 J cm^−2). Cellular viability was measured after an additional 24 h by the above-mentioned NR uptake assay. At least four independent experiments, each in triplicate, were performed.
# (§4) The concentrations of the studied compounds that induced a 50% decrease in cellular viability after treatment under the dark conditions (TC50, the median toxic concentration) or after the photodynamic treatment (EC50, the median effective concentration) were calculated using GraphPad Prism software (version 9.1.2; GraphPad Software, Inc., San Diego, CA, USA) for each independent experiment. The data are presented as the means ± standard deviations of these values.
# [2] = system: human melanoma (SK-MEL-28) cells; experiment: as above; type: cell-based; settings: for EC50: Homo sapiens, light or radiation study, 12 h incubation, λ > 455 nm, 15.3 mW cm−2, 15 min, 13.7 J cm−2
# Method: as §1, §2, §3, §4
# [3] = system: SK-MEL-28 cells; experiment: Dark toxicity (without irradiation), Neutral Red uptake; type: cell-based, human; settings: 24 h in the dark, compounds precipitated over listed values
# Method: as §1, §2
# To assess dark toxicities (inherent toxicities of the studied compounds without irradiation), SK-MEL-28 cells were treated with studied PSs for 24 h in the dark. Viability was evaluated after two washing steps using the Neutral Red (NR; Sigma-Aldrich (Merck, Darmstadt, Germany) uptake assay, based on the ability of the living cells to incorporate NR into their intact lysosomes (concentration of NR in cell culture medium was 30 μg/mL and incubation time with NR was 2 h). The absorbance of soluble NR in cell lysate was measured at λ = 540 nm using a Tecan Infinite 200 M plate reader (Tecan, Männedorf, Switzerland). The viability of each experimental group was expressed as the percentage of the untreated controls incubated under the same conditions (100%). After staining (before lysis), the cells were briefly investigated under the microscope to verify changes in cellular morphology and the presence of NR in lysosomes (orange-red spots in the cells). These observations were in agreement with NR measurements.
# as §4
# [4] = Absorption and fluorescence measurements (quantum yield, lifetime); type: physicochemical; settings: MeOH; for extinction coefficient (log ε): at λmax; for fluorescence quantum yield, absolute method (ΦF(absol)): integrating sphere; for fluorescence quantum yield, relative method (ΦF(relat)): rhodamin-G6 as reference; for fluorescence lifetime (τF): λexc = 506.1 nm
# Method: The singlet oxygen quantum yields (ΦΔ) and the fluorescence quantum yields (ΦF) of tested samples in MeOH were determined using published comparative (relative) methods with rhodamin-G6 used as a reference for fluorescence (ΦF = 0.94 in EtOH [31]), and bengal rose as a reference for singlet oxygen determinations (ΦΔ = 0.76 in MeOH [32]). Singlet oxygen measurements were performed with 1,3-diphenylisobenzofuran as the chemical scavenger of singlet oxygen by monitoring its decomposition at 417 nm. The ΦF values were also determined by an absolute method using an integrating sphere in an FLS1000 fluorimeter (Edinburgh Instruments, Edinburgh, UK). Fluorescence lifetimes were measured on the same fluorimeter upon excitation by HPL510 laser (Edinburgh Instruments, λ = 506.1 nm).
SMILES,absorption maximum (λmax) [4],emission maximum (λF) [4],extinction coefficient (log ε) [4],"fluorescence quantum yield, absolute method (ΦF(absol)) [4]","fluorescence quantum yield, relative method (ΦF(relat)) [4]",fluorescence lifetime (τF) [4],EC50 [1],"TC50/EC50, phototherapeutic index [2]",EC50 [2],"TC50, dark toxicity [3]",PDT activity improved over S3AlOHPc (fold) [1],EC50 higher than temoporfin (fold) [1]
"CC1=CC(C)=[N+]2C1=C(c1ccc(OCCCCCCCCN3C(=O)c4ccccc4C3=O)cc1)c1c(C)cc(C)n1[B-]2(F)F [2b, 1,3,5,7-Tetramethyl-8-{4-[8-(phthalimidyl)octyloxy]phenyl}-4,4-difluoro-4-bora-3a,4a-diaza-s-indacene]",498 nm,507 nm,4.96,0.44,0.42,2.88 ns,2.4 ± 0.53 µM,>2.64,3.79 ± 0.2 µM,>10 ^b μM,,
"CC1=CC(C)=[N+]2C1=C(c1ccc(OCCCCCN)cc1)c1c(C)cc(C)n1[B-]2(F)F [5a, 1,3,5,7-Tetramethyl-8-[4-(5-aminopentyloxy)phenyl]-4,4-difluoro-4-bora-3a,4a-diaza-s-indacene]",498 nm,507 nm,4.90,0.43,0.44,3.25 ns,9.4 ± 0.7 µM,>2.78,3.6 ± 0.66 µM,>10 ^b μM,,
"CC1=CC(C)=[N+]2C1=C(c1ccc(OCCCCCCCCN)cc1)c1c(C)cc(C)n1[B-]2(F)F [5b, 1,3,5,7-Tetramethyl-8-[4-(8-aminooctyloxy)phenyl]-4,4-difluoro-4-bora-3a,4a-diaza-s-indacene]",498 nm,507 nm,4.00,0.50,0.47,3.22 ns,1.57 ± 0.33 µM,>4.13,2.42 ± 0.46 µM,>10 ^b μM,,

# Now from value to compound, other results behind:
absorption maximum (λmax) [4],emission maximum (λF) [4],extinction coefficient (log ε) [4],"fluorescence quantum yield, absolute method (ΦF(absol)) [4]","fluorescence quantum yield, relative method (ΦF(relat)) [4]",fluorescence lifetime (τF) [4],SMILES,EC50 [1],"TC50/EC50, phototherapeutic index [2]",EC50 [2],"TC50, dark toxicity [3]",PDT activity improved over S3AlOHPc (fold) [1],EC50 higher than temoporfin (fold) [1]
530 nm,546 nm,4.36,0.022,0.024,0.17 ns,"CC1=C(I)C(C)=[N+]2C1=C(c1ccc(OCCCCCN3C(=O)c4ccccc4C3=O)cc1)c1c(C)c(I)c(C)n1[B-]2(F)F [3a, 2,6-Diiodo-1,3,5,7-tetramethyl-8-{4-[5-(phthalimidyl)pentyloxy]phenyl}-4,4-difluoro-4-bora-3a,4a-diaza-s-indacene]",0.14 ± 0.01 µM,>192,0.052 ± 0.01 µM,>10 ^b μM,10 ×,3 ×
530 nm,547 nm,3.70,0.030,0.023,0.17 ns,"CC1=C(I)C(C)=[N+]2C1=C(c1ccc(OCCCCCCCCN3C(=O)c4ccccc4C3=O)cc1)c1c(C)c(I)c(C)n1[B-]2(F)F [3b, 2,6-Diiodo-1,3,5,7-tetramethyl-8-{4-[8-(phthalimidyl)octyloxy]phenyl}-4,4-difluoro-4-bora-3a,4a-diaza-s-indacene]",1.57 ± 0.33 µM,>8.13,1.23 ± 0.14 µM,>10 ^b μM,,
525 nm,540 nm,4.72,0.21,0.19,1.37 ns,"CC1=C(Br)C(C)=[N+]2C1=C(c1ccc(OCCCCCN3C(=O)c4ccccc4C3=O)cc1)c1c(C)c(Br)c(C)n1[B-]2(F)F [4a, 2,6-Dibromo-1,3,5,7-tetramethyl-8-{4-[5-(phthalimidyl)pentyloxy]phenyl}-4,4-difluoro-4-bora-3a,4a-diaza-s-indacene]",0.21 ± 0.02 µM,>123,0.081 ± 0.023 µM,>10 ^b μM,10 ×,3 ×
523 nm,538 nm,4.04,0.23,0.22,1.54 ns,"CC1=C(Br)C(C)=[N+]2C1=C(c1ccc(OCCCCCCCCN3C(=O)c4ccccc4C3=O)cc1)c1c(C)c(Br)c(C)n1[B-]2(F)F [4b, 2,6-Dibromo-1,3,5,7-Tetramethyl-8-{4-[8-(phthalimidyl)octyloxy]phenyl}-4,4-difluoro-4-bora-3a,4a-diaza-s-indacene]",0.37 ± 0.07 µM,>45.5,0.22 ± 0.05 µM,>10 ^b μM,10 ×,3 ×
